Results: PMC7156458, “Synthetic biology based construction of biological activity-related library of fungal decalin-containing diterpenoid pyrones” (Nature Communications, 2020)
Where two headings read alike, the source gives them in different places.

Experiments:
MCF-7 cells = test: cell cytotoxic effects against MCF-7 cells (72 h), A490; type: cell-based, human; details: MCF-7, 72 h
[1] = cytotoxicity in Drosophila DL1 cells; type: cell-based; details: Drosophila, DL1 cells (embryonic macrophage-derived), DL1 cells
Description: (§1) We screened the DDPs on the Drosophila assay system for cytotoxicity, inhibitory activity of innate immune signalling and insecticidal activity. The cytotoxicity of the DDPs was evaluated using two cell lines, embryonic macrophage-derived DL1 cells[58]–[60] and larval blood cell-derived l(2)mbn cells, and their IC50 values are listed in Supplementary Table 23.

DL1 cells = test: cytotoxicity in Drosophila DL1 cells; type: cell-based; details: DL1 cells; for IC50: Drosophila melanogaster, cytotoxicity
Description: as §1

[2] = cytotoxicity in Drosophila l(2)mbn cells; type: cell-based; details: Drosophila, l(2)mbn cells (larval blood cell-derived)
Description: as §1

l(2)mbn cells = test: cytotoxicity in Drosophila l(2)mbn cells; type: cell-based; details: for Luminescence Raw1: replicate 1; for Luminescence Raw2: replicate 2
Description: as §1

[3] = system: human immunodeficiency virus-1 (HIV-1); test: anti-HIV MAGI assay; type: cell-based; details: Human immunodeficiency virus 1, MAGI, anti-HIV; average of numeric determinations; read-out: Avg. EC50
From the text: We examined the inhibitory activities of DDPs against various species of bacteria (both gram-negative and gram-positive bacteria), fungi and viruses. […] In contrast, preliminary screening of the DDPs for anti-viral agents with hepatitis B virus (HBV), measles virus (MV), Epstein-Barr virus (EBV), herpes simplex virus (HSV) and human immunodeficiency virus-1 (HIV-1) indicated their selective inhibition of HIV.

MAGI cells = test: cytotoxicity in the anti-HIV assay (CC50); type: cell-based; details: single determinations
[4] = replicate 1, relative to DMSO 1%, read-out: % viability, viability 1
[5] = replicate 2, relative to DMSO 1%, read-out: % viability, viability 2

Question: For C=C1CCC2C(C)(CC(=O)C=C(C)C)C(O)CCC2(C)C1Cc1c(O)c(C)c(C)oc1=O (stereo not shown) [Compound 7], which viability at 0.1 µM (MCF-7 cells; Homo sapiens, MCF7, 72 h, 0.1 µM (DMSO 0.002%), read-out: A490 (control =1) ave) is on record?
Answer: 81%

Question: What about the viability at 1 µM (MCF-7 cells; Homo sapiens, MCF7, 72 h, 1 µM (DMSO 0.02%), read-out: A490 (control =1) ave) of the same compound?
Answer: 92.4%

Question: What about the viability at 10 µM (MCF-7 cells; Homo sapiens, MCF7, 72 h, 10 µM (DMSO 0.2%), read-out: A490 (control =1) ave) of the same compound?
Answer: 104%

Question: What about the A490 ave (MCF-7 cells; 0.1 µM (DMSO 0.002%), control 1.064) of the same compound?
Answer: 0.862

Question: And the A490 ave (MCF-7 cells; 1 µM (DMSO 0.02%), control 1.104)?
Answer: 1.021

Question: What about the A490 ave (MCF-7 cells; 10 µM (DMSO 0.2%), control 1.049) of the same compound?
Answer: 1.095

Question: What about the viability at 0.04 µM [1, 4] of the same compound?
Answer: 129%

Question: What about the viability at 0.04 µM [1, 5] of the same compound?
Answer: 132%

Question: And the viability at 0.2 µM [1, 4]?
Answer: 133%

Question: What about the viability at 0.2 µM [1, 5] of the same compound?
Answer: 135%

Question: What about the viability at 1 µM [1, 4] of the same compound?
Answer: 120%

Question: What about the viability at 1 µM [1, 5] of the same compound?
Answer: 138%

Question: What about the viability at 4 µM [1, 4] of the same compound?
Answer: 83.5%

Question: And the viability at 4 µM [1, 5]?
Answer: 117%

Question: What about the viability at 10 µM [1, 4] of the same compound?
Answer: 36.5%

Question: And the viability at 10 µM [1, 5]?
Answer: 39.8%

Question: What about the viability at 20 µM [1, 4] of the same compound?
Answer: 13.4%

Question: And the viability at 20 µM [1, 5]?
Answer: 14.2%

Question: What about the “Luminescence Raw1” value (DL1 cells; 0.04 µM, replicate 1) of the same compound?
Answer: 2666434

Question: What about the “Luminescence Raw2” value (DL1 cells; 0.04 µM, replicate 2) of the same compound?
Answer: 2708996

Question: What about the “Luminescence Raw1” value (DL1 cells; 0.2 µM, replicate 1) of the same compound?
Answer: 2732080

Question: And the “Luminescence Raw2” value (DL1 cells; 0.2 µM, replicate 2)?
Answer: 2789792

Question: And the “Luminescence Raw1” value (DL1 cells; 1 µM, replicate 1)?
Answer: 2478515

Question: And the “Luminescence Raw2” value (DL1 cells; 1 µM, replicate 2)?
Answer: 2838847

Question: And the “Luminescence Raw1” value (DL1 cells; 4 µM, replicate 1)?
Answer: 1720040

Question: And the “Luminescence Raw2” value (DL1 cells; 4 µM, replicate 2)?
Answer: 2405658

Question: What about the “Luminescence Raw1” value (DL1 cells; 10 µM, replicate 1) of the same compound?
Answer: 751779

Question: What about the “Luminescence Raw2” value (DL1 cells; 10 µM, replicate 2) of the same compound?
Answer: 819211

Question: What about the “Luminescence Raw1” value (DL1 cells; 20 µM, replicate 1) of the same compound?
Answer: 275091

Question: And the “Luminescence Raw2” value (DL1 cells; 20 µM, replicate 2)?
Answer: 293480

Question: What about the IC50 (DL1 cells; average of two replicates, read-out: IC50 Average) of the same compound?
Answer: 8.75 µM

Question: What about the IC50 (DL1 cells; average±SEM, read-out: IC50) of the same compound?
Answer: 8.75 ± 0.64 µM

Question: And the IC50 (DL1 cells; replicate 1, read-out: IC50 (1))?
Answer: 8.12 µM

Question: And the IC50 (DL1 cells; replicate 2, read-out: IC50 (2))?
Answer: 9.39 µM

Question: What about the viability at 0.04 µM [2, 4] of the same compound?
Answer: 135%

Question: What about the viability at 0.04 µM [2, 5] of the same compound?
Answer: 130%

Question: And the viability at 0.2 µM [2, 4]?
Answer: 129%

Question: What about the viability at 0.2 µM [2, 5] of the same compound?
Answer: 135%

Question: What about the viability at 1 µM [2, 4] of the same compound?
Answer: 139%

Question: What about the viability at 1 µM [2, 5] of the same compound?
Answer: 132%

Question: And the viability at 4 µM [2, 4]?
Answer: 129%

Question: What about the viability at 4 µM [2, 5] of the same compound?
Answer: 131%

Question: What about the viability at 10 µM [2, 4] of the same compound?
Answer: 121%

Question: What about the viability at 10 µM [2, 5] of the same compound?
Answer: 115%

Question: What about the viability at 20 µM [2, 4] of the same compound?
Answer: 40.7%

Question: And the viability at 20 µM [2, 5]?
Answer: 39.5%

Question: What about the “Luminescence Raw1” value (l(2)mbn cells; 0.04 µM) of the same compound?
Answer: 3452362

Question: And the “Luminescence Raw2” value (l(2)mbn cells; 0.04 µM)?
Answer: 3328631

Question: And the “Luminescence Raw1” value (l(2)mbn cells; 0.2 µM)?
Answer: 3304462

Question: What about the “Luminescence Raw2” value (l(2)mbn cells; 0.2 µM) of the same compound?
Answer: 3461380

Question: What about the “Luminescence Raw1” value (l(2)mbn cells; 1 µM) of the same compound?
Answer: 3578980

Question: What about the “Luminescence Raw2” value (l(2)mbn cells; 1 µM) of the same compound?
Answer: 3388873

Question: What about the “Luminescence Raw1” value (l(2)mbn cells; 4 µM) of the same compound?
Answer: 3312398

Question: What about the “Luminescence Raw2” value (l(2)mbn cells; 4 µM) of the same compound?
Answer: 3370476

Question: And the “Luminescence Raw1” value (l(2)mbn cells; 10 µM)?
Answer: 3097048

Question: What about the “Luminescence Raw2” value (l(2)mbn cells; 10 µM) of the same compound?
Answer: 2956371

Question: What about the “Luminescence Raw1” value (l(2)mbn cells; 20 µM) of the same compound?
Answer: 1044161

Question: What about the “Luminescence Raw2” value (l(2)mbn cells; 20 µM) of the same compound?
Answer: 1013149

Question: What about the IC50 (l(2)mbn cells; Drosophila melanogaster, cytotoxicity, average±SEM, read-out: IC50) of the same compound?
Answer: > 20 µM

Question: And the EC50 [3]?
Answer: 0.163 µM

Question: And the Cytotoxicity (MAGI cells)?
Answer: >10 µM
